Test results: patent US20260325481A1, “THERAPY SELECTION AND TREATMENT OF NEURODEGENERATIVE DISORDERS” (Anavex Life Sciences Corp., priority 2022, published 2026)

Assays:
SIGMAR1 = SIGMAR1 levels in PDD-001 patients; format: in vivo, human; conditions: PDD-001 study
Description: The trial enrolled 132 adults, ages 50-85, with PDD, and was successfully concluded in September 2020. Participants, recruited at multiple sites in Spain and Australia, were randomly assigned to one of two doses groups (with an escalating ANAVEX 2-73 dose up to 30 or 50 mg oral capsules) or to a placebo, once daily for 14 weeks (see FIG. 1 for details). The trial's main goals were to assess the therapy's safety and changes in patients' cognitive function, measured using the cognitive drug research computerized assessment system—a test that looks at multiple cognitive skills, such as choice reaction time (choosing between similar objects), vigilance, and episodic memory (remembering new personal experiences or shared information). Secondary goals included changes in patients' motor abilities—assessed with the Movement Disorders Society Unified Parkinson's Disease Rating Scale (MDS-UPDRS) Part III—and sleep quality. […] This sleep disorder is associated with greater cognitive impairment and a higher risk of dementia. […] After 14 weeks, the MDS-UPDRS total score dropped by 10.98 points (indicating an easing in disease severity) in the high-dose group and rose by 3.53 points in the placebo group. This represented an adjusted mean improvement of 14.51 points—surpassing the established, clinically meaningful 7.1 point-cut-off—and a relative improvement of 18.9% over 14 weeks. […]

[1] = test system: Sigma-1 receptor (SIGMAR1); conditions: cited from earlier work
[2] = test system: patients with Parkinson's Disease with Dementia (PDD); assay: ANAVEX 2-73-PDD-001 Phase 2 study (randomized, double blind, placebo-controlled) in Parkinson's Disease with Dementia; format: in vivo, human
Description: In order to assess the safety, tolerability and efficacy of ANAVEX® 2-73 (blarcamesine) oral capsules in treating cognitive impairment in patients with Parkinson's Disease with Dementia (PDD), a phase 2 study, coded “ANAVEX® 2-73-PDD-001 study” (FIG. 1), was conducted. The study was multi-center, randomized, double blind, placebo-controlled, parallel group with 3-arm. The study included a 2-week Screening/Baseline Observation Period and a 14-week Treatment Period (including a 2 week Titration Period), and a 2-week Safety Follow-Up Period. A total of 132 patients were enrolled in the study and were randomly assigned to three testing arms (FIG. 1). In ANAVEX2-73 High Dose arm, 44 patients were given oral capsules of ANAVEX2-73 once daily in an escalating dose of 10 mg, 20 mg, 30 mg and 50 mg. In ANAVEX2-73 Mid Dose arm, 44 patients were given oral capsules of ANAVEX2-73 once daily in an escalating dose of 10 mg, 20 mg, and 30 mg. In placebo group, 44 patients were given placebo capsules. Outcome measures included Cognitive Drug Research (CDR) Computerized Assessment System on Continuity of Attention; Change from Baseline to End of Treatment in Continuity of Attention as measured by Cognitive Drug Research (CDR) Computerized Assessment System Continuity of Attention; Number of participants with treatment-related adverse events as assessed by CTCAE v4.0 [Time Frame: 14 weeks]; Assessment of the safety and tolerability of ANAVEX2-73 compared to placebo; MDS-UPDRS Part III Total Score (Motor Scores); Change from baseline to End of Treatment as measured by MDS-UPDRS Part III Total Score (Motor Scores); SDS-CL-25 [Time Frame: 14 weeks]; Incidence of sleep disorders symptoms (SDS-CL-25); and DNA/RNA Sequencing. Since MDS-UPDRS is indicative of the motor activity for Parkinson Disease (PD), the trial can also identify the effects of ANAVEX® 2-73 on PD patients.
The trial enrolled 132 adults, ages 50-85, with PDD, and was successfully concluded in September 2020. Participants, recruited at multiple sites in Spain and Australia, were randomly assigned to one of two doses groups (with an escalating ANAVEX 2-73 dose up to 30 or 50 mg oral capsules) or to a placebo, once daily for 14 weeks (see FIG. 1 for details). The trial's main goals were to assess the therapy's safety and changes in patients' cognitive function, measured using the cognitive drug research computerized assessment system—a test that looks at multiple cognitive skills, such as choice reaction time (choosing between similar objects), vigilance, and episodic memory (remembering new personal experiences or shared information). Secondary goals included changes in patients' motor abilities—assessed with the Movement Disorders Society Unified Parkinson's Disease Rating Scale (MDS-UPDRS) Part III—and sleep quality. […] This sleep disorder is associated with greater cognitive impairment and a higher risk of dementia. […] After 14 weeks, the MDS-UPDRS total score dropped by 10.98 points (indicating an easing in disease severity) in the high-dose group and rose by 3.53 points in the placebo group. This represented an adjusted mean improvement of 14.51 points—surpassing the established, clinically meaningful 7.1 point-cut-off—and a relative improvement of 18.9% over 14 weeks. These findings highlight ANAVEX 2-73's ability to not only slow, but also reverse, symptoms that progress in Parkinson's disease, potentially fulfilling an urgent unmet medical need, Anavex stated in its release. […] After completing the PDD-001 trial, patients had the option of being treated with ANAVEX 2-73 for nearly one year in its extension study, called ANAVEX 2-73-PDD-EP-001 (NCT04575259).
Randomized, placebo-controlled clinical trial in 132 patients with Parkinson's disease with dementia (PDD) included prespecified biomarkers of response as well as Whole Exome Sequencing DNA data and full RNA exome expression data collection. […]

CN(C)CC1CCOC1(c1ccccc1)c1ccccc1.Cl (centres unmarked) [ANAVEX2-73, tetrahydro-N,N-dimethyl-2,2-diphenyl-3-furanmethanamine hydrochloride]
SIGMAR1 levels (SIGMAR1): significant increase | Association of rise in SIGMAR1 levels with clinical response (SIGMAR1; attention measures, MDS-UPDRS total and Part III): significantly associated with improvements in attention measures, and reductions in both MDS-UPDRS total and MDS-UPDRS Part III (motor scores) | Sigma-1 receptor (SIGMAR1) activity [1]: agonist | Dementia assessment, Quality of Episodic Memory ([2]; 14-week trial, oral): dose-dependent, statistically significant improvement | REM sleep behavior disorder ([2]; 14 weeks, previously reported results, confirmed): lessened REM sleep behavior disorder | Cognitive skills ([2]; CDR computerized assessment system, 14 weeks, previously reported results, confirmed): significantly improved several cognitive skills | MDS-UPDRS Part II response ([2]; MS4A4A Wild Type rs6591561 cohort (excluding rs6591561 homozygous mutation carriers)): strongest response | Response depending on patients' MS4A4A (rs6591561) carrier status ([2]; PDD-001 study): Different ANAVEX® 2-73 response | Motor and non-motor Parkinson's symptoms (MDS-UPDRS total score) ([2]; high dose (50 mg) once daily oral, 14 weeks): statistically significant and clinically meaningful reductions | Parkinson's assessment, MDS-UPDRS Total score ([2]; high oral dose once daily, 14-week trial): significant improvement | Safety ([2]; oral capsules once daily up to 30 or 50 mg, 14 weeks, previously reported results): generally safe
